Usually GI50 stands for the concentration giving 50% growth inhibition. The low end stands for more potent growth inhibition, the high end for less potent growth inhibition. As usually defined, the solubility is the dissolved amount per volume that the medium holds. One may read the IC50 as the concentration at which inhibition is half-maximal. Low readings indicate greater potency, high ones weaker potency.

Results on 17 molecules are retold here after ChEMBL document CHEMBL1152314, “Antineoplastic agents. 565. Synthesis of combretastatin D-2 phosphate and dihydro-combretastatin D-2” (J Nat Prod, 2009).

Structures are written as SMILES. ≈ marks a conversion by molar mass, not a printed value. Calls of active or inactive are those of the source. The rule behind the calls is not given here.

For one data set, the system named is P388. The data set can be described thus: Cytotoxicity against mouse P388 cells. It is filed as functional. The following applies: read-out: ED50 (the source's name).
Data set [1] is described as follows: Cytotoxicity against human colon cancer cells. It is filed as functional. The conditions noted are these: Cancer cell lines.
A short description of data set [2]: Cytotoxicity against human brain cancer cells. Type of data set: functional. The conditions noted are these: Cancer cell lines.
Data set [3] in a line: Solubility in water at 25 degC. It is filed as physicochemical.
Data set [4] can be described thus: Cytotoxicity against human breast cancer cells. Type of data set: functional. The conditions noted are these: Cancer cell lines.
Data set [5] in a line: Cytotoxicity against human pancreatic cancer cells. Type of data set: functional. The conditions noted are these: Cancer cell lines.
Data set [6] in a line: Cytotoxicity against human prostate cancer cells. The conditions noted are these: Cancer cell lines. Type of data set: functional.
A short description of data set [7]: Cytotoxicity against human lung cancer cells. Type of data set: functional. The following applies: Cancer cell lines.
A further data set relates to Escherichia coli. In words: Antimicrobial activity against Escherichia coli ATCC 25922. It is filed as functional, organism-based.
For a further data set, the system named is Streptococcus pneumoniae. The data set can be described thus: Antimicrobial activity against Streptococcus pneumoniae ATCC 6303. Type of data set: functional, organism-based.
In a further data set the test system is Enterobacter cloacae. In words: Antimicrobial activity against Enterobacter cloacae ATCC 13047. It is filed as functional, organism-based.
Another data set concerns Staphylococcus aureus. In words: Antimicrobial activity against Staphylococcus aureus ATCC 29213. It is filed as functional, organism-based.
For another data set, the system named is Neisseria gonorrhoeae. In words: Antimicrobial activity against Neisseria gonorrhoeae ATCC 49226. It is filed as functional, organism-based.
The subject of another data set is Enterococcus faecalis. The data set can be described thus: Antimicrobial activity against Enterococcus faecalis ATCC 29212. Type of data set: functional, organism-based.
For a further data set, the system named is Candida albicans. In words: Antimicrobial activity against Candida albicans ATCC 90028. Type of data set: functional, organism-based.
Data set [8] concerns Stenotrophomonas maltophilia. The data set can be described thus: Antimicrobial activity against Stenotrophomonas maltophilia ATCC 13637. Type of data set: functional, organism-based.
The next data set deals with Cryptococcus neoformans. The data set can be described thus: Antimicrobial activity against Cryptococcus neoformans ATCC 90112. Type of data set: functional, organism-based.
The test system of a further data set is Micrococcus luteus. The data set can be described thus: Antimicrobial activity against Micrococcus luteus Presque Isle 456. It is filed as functional, organism-based.
Data set [9] can be described thus: Inhibition of tubulin polymerization.

As to `O=C(CCc1ccc(OCc2ccccc2)c(O)c1)OC/C=C\c1ccc(F)c([N+](=O)[O-])c1`, the EC50 with P388 is above 100 mg/L.

Turning to `O=C1CCc2ccc(OP(=O)([O-])[O-])c(c2)Oc2ccc(cc2)/C=C\CO1.[K+].[K+]`, the GI50 in data set [1] is 40.6 mg/L; in data set [2] it was 45.2 mg/L; in [4], 34.5 mg/L; in data set [5] it was 40.1 mg/L; in [6], 14.4 mg/L; in data set [7], 27.8 mg/L. This molecule also gave a solubility in data set [3] (buffer) above 50 mg/mL.

With `O=C1CCc2ccc(O)c(c2)Oc2ccc(cc2)CCCO1` [CORNICULATOLIDE A], the outcome in the data set on Escherichia coli, with Streptococcus pneumoniae, with Enterobacter cloacae, in the data set with Staphylococcus aureus, in the data set on Neisseria gonorrhoeae and in the data set with Enterococcus faecalis was inactive. Also, the result (with Candida albicans; in [8]; with Cryptococcus neoformans; in the data set on Micrococcus luteus) was inactive. For the same molecule, the EC50 with P388 is above 100 mg/L.

Take `O=C1CCc2ccc(OP(=O)([O-])[O-])c(c2)Oc2ccc(cc2)/C=C\CO1.[Na+].[Na+]`: the GI50 in data set [1] is 25.5 mg/L; in data set [2], 36.3 mg/L; in [4] it was 30.5 mg/L; in data set [5], 22.1 mg/L; in data set [6] it was 18.2 mg/L; in [7] it was 13.3 mg/L. The molecule also came in with a solubility in data set [3] (buffer) above 70 mg/mL. Moreover, the EC50 in the data set with P388 is 23.9 mg/L.

Take `O=C1CCc2ccc(OP(=O)([O-])[O-])c(c2)Oc2ccc(cc2)/C=C\CO1.[Li+].[Li+]`: the GI50 in data set [1] stood at 27.5 mg/L; in [2] it was 37.9 mg/L; in data set [4], 26.1 mg/L; in [5] it was 35.9 mg/L; in data set [6], 4.3 mg/L; in data set [7] it was 14.4 mg/L. In addition, the solubility in data set [3] (buffer) is 20 mg/mL. Also, the EC50 in the data set with P388 was 27.1 mg/L.

For the molecule `COc1ccc2cc1Oc1ccc(cc1)/C=C\COC(=O)CC2`, the GI50 in [1] came to 9.4 mg/L (≈ 30.3 µM); in [2] it was 2.2 mg/L (≈ 7.09 µM); in data set [4], 0.83 mg/L (≈ 2.67 µM); in data set [5] it was 7.3 mg/L (≈ 23.5 µM); in data set [6], 5.6 mg/L (≈ 18 µM); in data set [7] it was 6.6 mg/L (≈ 21.3 µM). For the same molecule, in the data set with P388, the EC50 turned out to be 8.1 mg/L (≈ 26.1 µM).

`O=C(CCc1ccc(OCc2ccccc2)c(O)c1)OC/C=C\c1ccc(Br)cc1`: the EC50 with P388 is above 100 mg/L.

For `O=C1CCc2ccc(O)c(c2)Oc2ccc(cc2)/C=C\CO1`, the GI50 in data set [1] was above 10 mg/L; in [2], 4.7 mg/L (≈ 15.9 µM); in data set [4], 6.6 mg/L (≈ 22.3 µM); in data set [5], 4.8 mg/L (≈ 16.2 µM); in data set [6], 2.7 mg/L (≈ 9.11 µM); in [7], 6 mg/L (≈ 20.2 µM). Besides, the result in the data set with Escherichia coli, in the data set on Streptococcus pneumoniae, with Enterobacter cloacae, in the data set with Staphylococcus aureus, with Neisseria gonorrhoeae and in the data set with Enterococcus faecalis was inactive. The outcome (in the data set on Candida albicans; in data set [8]; in the data set on Cryptococcus neoformans; in the data set on Micrococcus luteus) was inactive. This molecule gave a solubility in [3] (buffer) of 0.5 mg/mL (≈ 1690 µM). The EC50 with P388 worked out at 5.2 mg/L (≈ 17.5 µM). In data set [9], this molecule came in with an IC50 above 40 µM.

As to `COc1ccc(CCC(=O)OC/C=C\c2ccc(Br)cc2)cc1O`, the GI50 in [1] is 17.1 mg/L (≈ 43.7 µM); in [2], 18.5 mg/L (≈ 47.3 µM); in data set [4], 16.4 mg/L (≈ 41.9 µM); in data set [5] it was 16.4 mg/L (≈ 41.9 µM); in data set [6], 8.9 mg/L (≈ 22.7 µM); in data set [7], 16.5 mg/L (≈ 42.2 µM). For the same molecule, the EC50 with P388 is above 100 mg/L.

In the case of `COc1ccc(CCC(=O)OC/C=C\c2ccc(F)c([N+](=O)[O-])c2)cc1O`, the EC50 in the data set with P388 is 27 mg/L (≈ 71.9 µM).

For `COc1ccc(C[C@@H](O)c2cc(OC)c(OC)c(OC)c2)cc1O` [COMBRETASTATIN], the EC50 in the data set with P388 amounted to 0.011 mg/L (≈ 0.0329 µM). This molecule also showed an IC50 in [9] of 5 µM.

On to `COc1ccc(/C=C\c2cc(OC)c(OC)c(OC)c2)cc1O` [COMBRETASTATIN A4], for which, in the data set with P388, the EC50 was found to be 0.0034 mg/L (≈ 0.0107 µM).

On to `O=C1CCc2ccc(OCc3ccccc3)c(c2)Oc2ccc(cc2)CCCO1`, for which the EC50 with P388 was above 100 mg/L.

With `O=C1CCc2ccc(OCc3ccccc3)c(c2)Oc2ccc(cc2)/C=C\CO1`, the EC50 with P388 is above 100 mg/L.

`COc1ccc(CCC(=O)OCCCc2ccc(Br)cc2)cc1O`: in the data set with P388, the EC50 is above 100 mg/L.

Consider `C1COCCN1.C1COCCN1.O=C1CCc2ccc(OP(=O)(O)O)c(c2)Oc2ccc(cc2)/C=C\CO1`, for which the GI50 in data set [1], in data set [2], in data set [4], in [5], in data set [6] and in [7] was above 10 mg/L throughout. For the same molecule, the solubility in data set [3] (water, read-out: solubility) is 5 mg/mL. Besides, the EC50 with P388 is 86.2 mg/L.

Regarding `O=C1CCc2ccc(O)c(c2)Oc2ccc(cc2)[C@H]2O[C@@H]2CO1`, the EC50 in the data set with P388 came to 3.3 mg/L (≈ 10.6 µM). Also, the IC50 in [9] was above 40 µM.
